The text below walks through data of US20080090805A1, “CB-1 MODULATING COMPOUNDS AND THEIR USE” (ACADIA PHARMACEUTICALS INC., priority 2005, published 2008).

Read-outs that look alike come from different tables or passages of the source.

In the test the target is native CB1 receptors (Rattus norvegicus, UniProt P20272). In words: CB1 receptor rat binding assay ([3H]SR141716A, rat brain membranes).
[1] abbreviates: rat brain membranes, [3H]SR141716A.
The mark [2] stands for this setting: rat brain membranes, [3H]SR141716A, read-out: Binding rat pKi (converted).

native CB1 receptors, sequence (P20272 whole entry): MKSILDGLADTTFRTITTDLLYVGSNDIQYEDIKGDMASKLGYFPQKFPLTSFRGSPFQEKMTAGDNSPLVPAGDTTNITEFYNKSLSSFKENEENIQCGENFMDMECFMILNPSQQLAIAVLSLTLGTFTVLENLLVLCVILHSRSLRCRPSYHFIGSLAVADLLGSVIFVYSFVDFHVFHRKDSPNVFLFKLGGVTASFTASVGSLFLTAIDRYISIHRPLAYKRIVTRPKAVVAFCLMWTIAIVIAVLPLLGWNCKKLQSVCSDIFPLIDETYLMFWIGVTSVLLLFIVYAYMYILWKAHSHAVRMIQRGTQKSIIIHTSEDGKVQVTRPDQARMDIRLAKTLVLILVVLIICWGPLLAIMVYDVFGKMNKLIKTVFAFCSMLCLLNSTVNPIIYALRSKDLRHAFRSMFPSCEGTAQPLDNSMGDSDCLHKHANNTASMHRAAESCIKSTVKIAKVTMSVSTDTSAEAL

With `O=C(NC1CCC(F)(F)CC1)c1ccc2c(c1)N=C(c1ccc(Cl)cc1F)c1ccccc1S2`, the “Binding rat Inh %” value under setting [1] is recorded as 78%. For the same compound, under setting [2], the Ki was 1 nM.

Regarding `CCCCNC(=O)c1ccc2c(c1)N=C(c1ccc(Cl)s1)c1ccc(Cl)cc1S2` [drawing 1480], under setting [1], the “Binding rat Inh %” value amounted to 90%. Also, the Ki under setting [2] was 10 nM. Turning to `CCCC1=Nc2cc(C(=O)NCc3ccc(F)cc3)ccc2Sc2ccccc21` [drawing 1529], the Ki under setting [2] is 79.4 nM.

For the compound `CC(NC(=O)c1ccc2c(c1)N=C(c1ccccc1)c1ccccc1S2)c1ccccc1` (centres unmarked) [drawing 1379], the Ki under setting [2] was 31.6 nM. On to `O=C(NCCCc1ccccc1)c1ccc2c(c1)N=C(N1CCCCC1)c1ccccc1S2` [drawing 1533], for which the Ki under setting [2] is 10 nM. In the case of `COc1ccc(C2=Nc3cc(C(=O)NCCC(C)C)ccc3Sc3ccccc32)cc1` [drawing 1351], the “Binding rat Inh %” value under setting [1] is listed as 81%. The Ki under setting [2] is 3.98 nM. On to `CC(C)CNC(=O)c1ccc2c(c1)N=C(c1ccc(Br)cc1)c1ccccc1S2` [drawing 1354], for which the “Binding rat Inh %” value under setting [1] worked out at 77%. Besides, the Ki under setting [2] was 3.98 nM.

Turning to `O=C(NCCc1cccc(Cl)c1)c1ccc2c(c1)N=C(N1CCCCC1)c1ccccc1S2` [drawing 1222], the Ki under setting [2] was 15.8 nM. With `Cc1csc(CNC(=O)c2ccc3c(c2)N=C(c2cccc(C)n2)c2ccccc2S3)c1` [drawing 1263], the “Binding rat Inh %” value under setting [1] came out at 94%. Also, under setting [2], the Ki was 1.58 nM. The matching figures for `O=C(NCc1ccco1)c1ccc2c(c1)N=C(c1cccc(Cl)c1)c1ccccc1S2` [drawing 1448]: 85% and 7.94 nM.

On to `O=C(NCc1ccncc1)c1ccc2c(c1)N=C(c1cccc(Br)c1)c1ccccc1S2` [drawing 1511], for which the “Binding rat Inh %” value under setting [1] stood at 76%. Moreover, the Ki under setting [2] was 79.4 nM. Regarding `O=C(NCCC(F)(F)F)c1ccc2c(c1)N=C(c1ccsc1)c1ccccc1S2` [drawing 1442], under setting [1], the “Binding rat Inh %” value was 88%. The Ki under setting [2] is 7.94 nM.

`O=C(NN1CCCCCC1)c1ccc2c(c1)N=C(c1ccc(Cl)cc1Cl)c1ccccc1S2` [drawing 1522]: the “Binding rat Inh %” value under setting [1] was determined as 72%. The Ki under setting [2] was 79.4 nM. The matching figures for `O=C(NCCc1ccccn1)c1ccc2c(c1)N=C(c1ccc(F)cc1)c1ccccc1S2` [drawing 1411]: 85% and 39.8 nM.

For the compound `O=C(NCc1ccc(F)cc1)c1ccc2c(c1)N=C(C1CCCCC1)c1ccccc1S2(=O)=O` [drawing 1326], the Ki under setting [2] was 25.1 nM. As to `CCOCCNC(=O)c1ccc2c(c1)N=C(c1ccc(C#N)cc1)c1ccccc1S2` [drawing 1543], the “Binding rat Inh %” value under setting [1] came to 64%. Further, under setting [2], the Ki is 100 nM.

For the compound `O=C(NCc1ccc(F)cc1)c1ccc2c(c1)N=C(c1ccc(Cl)cc1)c1ccccc1S2(=O)=O` [drawing 1316], the Ki under setting [2] was 25.1 nM. In the case of `CCOCCNC(=O)c1ccc2c(c1)N=C(c1cccc(Br)c1)c1ccccc1S2` [drawing 1323], the “Binding rat Inh %” value under setting [1] is 76%. Besides, the Ki under setting [2] is 25.1 nM. Regarding `Cc1ccc(CNC(=O)c2ccc3c(c2)N=C(c2ccc(Cl)cc2F)c2ccccc2S3)o1` [drawing 1441], the “Binding rat Inh %” value under setting [1] was determined as 90%. For the same compound, the Ki under setting [2] is 7.94 nM.

In the case of `CC(C)CCNC(=O)c1ccc2c(c1)N=C(c1ccccc1Cl)c1ccccc1S2` [drawing 1188], under setting [1], the “Binding rat Inh %” value stood at 116%. The Ki under setting [2] is 12.6 nM.

For the compound `O=C(NCc1ccccc1Br)c1ccc2c(c1)N=C(c1ccccc1)c1ccccc1S2` [drawing 1483], the Ki under setting [2] is 63.1 nM. Still for that read-out and setting: the result for `O=C(NCc1cccc(Cl)c1)c1ccc2c(c1)N=C(c1cccc(Cl)c1)c1cc(F)ccc1S2` [drawing 1375] reads 5.01 nM; that for `O=C(NCCc1cccc(Cl)c1)c1ccc2c(c1)N=C(c1ccc(Cl)cc1)c1ccccc1S2` [drawing 1283], 20 nM.

Regarding `O=C(NCCc1ccncc1)c1ccc2c(c1)N=C(c1ccc(Cl)c(Cl)c1)c1ccccc1S2` [drawing 1497], the “Binding rat Inh %” value under setting [1] turned out to be 123%. Also, under setting [2], the Ki is 10 nM. For the compound `Cc1ccsc1C1=Nc2cc(C(=O)NCCC(F)(F)F)ccc2Sc2ccccc21` [drawing 1198], under setting [1], the “Binding rat Inh %” value is reported as 103%. For the same compound, the Ki under setting [2] is 12.6 nM. As to `O=C(NCc1ccccc1)c1ccc2c(c1)N=C(c1ccc(Cl)cc1)c1ccccc1S2` [drawing 1368], the Ki under setting [2] is 5.01 nM. The same measure, in the same setting: the result for `O=C(NCc1ccc(F)cc1)c1ccc2c(c1)N=C(c1ccccc1F)c1ccccc1S2` [drawing 1299] reads 20 nM; that for `O=C(NCc1cccc(Cl)c1)c1ccc2c(c1)N=C(c1ccccc1F)c1ccccc1S2` [drawing 1510], 10 nM. `COc1cccc(C2=Nc3cc(C(=O)NCCC(F)(F)F)ccc3Sc3ccccc32)n1` [drawing 1237]: under setting [1], the “Binding rat Inh %” value came to 91%. Also, the Ki under setting [2] was 15.8 nM. The matching figures for `Cc1ccsc1C1=Nc2cc(C(=O)NCCC(C)C)ccc2Sc2ccccc21` [drawing 1251]: 88% and 15.8 nM. As to `CCCCNC(=O)c1ccc2c(c1)N=C(c1ccc(Cl)cc1)c1cc(F)ccc1S2` [drawing 1500], the “Binding rat Inh %” value under setting [1] stood at 90%. For the same compound, the Ki under setting [2] was 10 nM.

In the case of `O=C(NN1CCCCC1)c1ccc2c(c1)N=C(c1ccc(Br)cc1)c1ccccc1S2` [drawing 1423], under setting [1], the “Binding rat Inh %” value was 89%. Moreover, the Ki under setting [2] is 6.31 nM. As for `COc1ccc(C2=Nc3cc(C(=O)NCC(C)C)ccc3Sc3ccccc32)cc1` [drawing 1508], under setting [1], the “Binding rat Inh %” value amounted to 79%. The Ki under setting [2] was 10 nM. Taken in the same sequence, the figures for `O=C(NC1CCC(F)(F)CC1)c1ccc2c(c1)N=C(c1ccc(F)cc1)c1ccccc1S2` [drawing 1258] were 94% and 1.26 nM.

On to `O=C(NCCc1ccccn1)c1ccc2c(c1)N=C(c1ccc(Cl)cc1)c1ccccc1S2` [drawing 1340], for which, under setting [1], the “Binding rat Inh %” value is 60%. Further, the Ki under setting [2] is 25.1 nM. `CCCNC(=O)c1ccc2c(c1)N=C(c1ccc(Cl)cc1F)c1ccccc1S2` [drawing 1276]: under setting [1], the “Binding rat Inh %” value is reported as 98%. In addition, the Ki under setting [2] was 20 nM. With `O=C(NCc1cccs1)c1ccc2c(c1)N=C(c1cccc(F)c1)c1ccccc1S2` [drawing 1384], the “Binding rat Inh %” value under setting [1] amounted to 95%. Further, under setting [2], the Ki is 5.01 nM. For the compound `CCCCNC(=O)c1ccc2c(c1)N=C(c1ccc(F)cc1)c1ccccc1S2` [drawing 1238], the Ki under setting [2] was 15.8 nM.

Regarding `O=C(NCc1ccncc1)c1ccc2c(c1)N=C(c1ccc(Cl)cc1)c1ccccc1S2` [drawing 1294], under setting [1], the “Binding rat Inh %” value worked out at 77%. The Ki under setting [2] was 20 nM.

`O=C(NN1CCCCC1)c1ccc2c(c1)N=C(C1CCCCC1)c1ccccc1O2` gave a Ki of 63.1 nM.

For `O=C(NN1CCCCC1)c1ccc2c(c1)N=C(c1ccc(F)cn1)c1ccccc1S2` [drawing 1494], under setting [1], the “Binding rat Inh %” value is reported as 94%. Under setting [2], the Ki was 63.1 nM.

Take `O=C(NCc1ccc(Cl)cc1Cl)c1ccc2c(c1)N=C(c1ccccc1F)c1ccccc1S2` [drawing 1551]: the Ki under setting [2] is 100 nM. Regarding `O=C(NC1CCC(F)(F)CC1)c1ccc2c(c1)N=C(c1ccsc1)c1ccccc1S2`, the “Binding rat Inh %” value under setting [1] was 92%. The Ki under setting [2] is 3.16 nM. For the compound `O=C(NCc1ccccn1)c1ccc2c(c1)N=C(c1ccc(Br)cc1)c1ccccc1S2` [drawing 1469], the “Binding rat Inh %” value under setting [1] was found to be 71%. Moreover, the Ki under setting [2] is 50.1 nM. Regarding `CC(NC(=O)c1ccc2c(c1)N=C(N1CCCCC1)c1ccccc1S2)c1ccccc1` (centres unmarked), under setting [2], the Ki was 20 nM. Take `O=C(NCCc1ccccn1)c1ccc2c(c1)N=C(c1ccc(Br)cc1)c1ccccc1S2` [drawing 1460]: under setting [1], the “Binding rat Inh %” value amounted to 61%. For the same compound, the Ki under setting [2] is 50.1 nM. The matching figures for `Cc1cccc(C2=Nc3cc(C(=O)NCCC(F)(F)F)ccc3Sc3ccccc32)n1` [drawing 1308]: 91% and 20 nM. Take `CCCNC(=O)c1ccc2c(c1)N=C(c1ccc(Cl)s1)c1ccccc1S2` [drawing 1236]: under setting [1], the “Binding rat Inh %” value came to 89%. The Ki under setting [2] was 15.8 nM.

Regarding `O=C(NCCc1cccc(Cl)c1)c1ccc2c(c1)N=C(c1ccc(F)cc1)c1ccccc1S2` [drawing 1179], the Ki under setting [2] was 12.6 nM. In the case of `Cc1ccc(CNC(=O)c2ccc3c(c2)N=C(c2sccc2C)c2ccccc2S3)o1` [drawing 1400], the “Binding rat Inh %” value under setting [1] stood at 102%. Moreover, the Ki under setting [2] is 6.31 nM. Taken in the same sequence, the figures for `CCOCCNC(=O)c1ccc2c(c1)N=C(c1ccc(Br)cc1)c1ccccc1S2` [drawing 1404] were 81% and 39.8 nM. For `O=C(NCc1ccccc1)c1ccc2c(c1)N=C(c1ccc(F)cc1)c1ccccc1S2` [drawing 1409], under setting [2], the Ki was 6.31 nM.

Regarding `CC(NC(=O)c1ccc2c(c1)N=C(c1ccc(F)cc1)c1ccccc1S2)c1ccccc1` (centres unmarked) [drawing 1471], the Ki under setting [2] is 7.94 nM. For the compound `O=C(NCc1cccnc1)c1ccc2c(c1)N=C(c1ccc(Cl)cc1)c1ccccc1S2` [drawing 1260], under setting [1], the “Binding rat Inh %” value is given as 76%. Under setting [2], the Ki is 15.8 nM. Taken in the same sequence, the figures for `CCCCNC(=O)c1ccc2c(c1)N=C(c1ccc(F)cn1)c1ccccc1S2` [drawing 1246] were 87% and 15.8 nM. The matching figures for `O=C(NC1CCCCC1)c1ccc2c(c1)N=C(c1cccc(F)c1)c1ccccc1S2` [drawing 1306]: 84% and 3.16 nM.

With `CC(C)CNC(=O)c1ccc2c(c1)N=C(c1cccc(Cl)c1)c1ccccc1S2` [drawing 1361], the “Binding rat Inh %” value under setting [1] is on record as 99%. In addition, under setting [2], the Ki is 3.98 nM. Take `O=C(NCc1ccc(F)cc1)c1ccc2c(c1)N=C(c1ccccc1)c1ccccc1S2` [drawing 1352]: under setting [2], the Ki is 3.98 nM. For the compound `Cc1ccsc1C1=Nc2cc(C(=O)NC3CCCCC3)ccc2Sc2ccccc21` [drawing 1531], under setting [1], the “Binding rat Inh %” value is on record as 72%. In addition, the Ki under setting [2] was 10 nM. Regarding `CC(NC(=O)c1ccc2c(c1)N=C(C1CCCCC1)c1ccccc1S2)c1ccccc1` (centres unmarked) [drawing 1431], the Ki under setting [2] was 6.31 nM. `C[C@@H]1CCC[C@H](C)N1NC(=O)c1ccc2c(c1)N=C(c1ccc(Cl)cc1)c1ccccc1S2` [drawing 1396]: under setting [1], the “Binding rat Inh %” value was 94%. For the same compound, the Ki under setting [2] was 39.8 nM.
